# Measurements published in publication PMC5974751, “NKp44-Derived Peptide Binds Proliferating Cell Nuclear Antigen and Mediates Tumor Cell Death” (Frontiers in Immunology, 2018).
# Ends that are not written are not given here. * marks the point of attachment. Biotin = O=C1N[C@H]2[C@H](CS[C@H]2CCCCC(=O)*)N1
# B1: R11-NLS-pep8 (peptide)
# peptide: RRRRRRRRRRRIKKKRKWEASALVCIRLVTSSKPRTVA
# modifications: not fully specified (residue 38, N-terminus); printed as RRRRRRRRRRR-I-KKKRK-W-EASALVCIRLVTSSKPRTVA
# notes: cell-penetrating moiety: R11, I, NLS stretch KKKRK, W; NKp44 (NCR2), amino acids 57-76 (pep8), with valine at 75 (SNP rs9471577); also called CPP-pep8; source: synthetic peptide (GL Biochem, purity > 95%)
# B2: NKp44-derived pep8 (immobilised for SPR) (peptide)
# peptide: EASALVCIRLVTSSKPRTVA
# notes: NKp44 (NCR2), amino acids 57-76, with the natural SNP variant (rs9471577) valine at 75; also called NKp44-pep8; source: synthetic peptide
# B3: biotinylated NKp44-derived peptide #10 (peptide)
# peptide: Biotin-VTSSKPRTVAWTSRFTIWAA
# notes: NKp44 (NCR2), amino acids 67-86, with valine at 75 (SNP rs9471577); also called pep10; NKp44-pep10; source: synthetic peptide (PEP screen, Sigma-Aldrich; selected peptides from GL Biochem)
# B4: biotinylated NKp44-derived peptide #8 (peptide)
# peptide: Biotin-EASALVCIRLVTSSKPRTVA
# notes: NKp44 (NCR2), amino acids 57-76, with the natural SNP variant (rs9471577) valine at 75; also called pep8; NKp44-pep8; source: synthetic peptide (PEP screen, Sigma-Aldrich; selected peptides from GL Biochem)
# Columns and labels:
# [1] = test system: 4T1 cells; assay: Flow cytometry based cell death assay (PI), 4T1; set-up: species or system murine; settings: 4T1, PI flow cytometry, 0–8 µM, 24 h
# Procedure: (§1) Peptides were diluted before the incubation with the target cells with free DMEM culture medium to 0–16 µM according to peptide molecular weight. For adding the peptides, 0.5 ml was removed from each well, and 0.5 ml of diluted peptides was added to a final volume of 1 ml, 5% FCS, duplicates. Peptides were incubated with target cells for 24 h, and then the medium was collected, adherent cells were removed with trypsin–EDTA (0.5 ml, 3 min, BI: 03-052-1B), 1 ml of complete medium was added to each well, and the medium was collected (final volume 2.5 ml, on ice). For the cell death assay, samples were then centrifuged (1,300 rpm, 4°C, 5 min), the medium was removed, fresh 1 ml 10% FCS was added, and then 1 µl of 1 mg/ml PI was added to each sample and incubated (15 min, on ice) with the target cells. Before analyzing the samples, samples were centrifuged (1,300 rpm, 4°C, 5 min), the medium was removed, and fresh 0.2 ml FCAS buffer (PBS 1×, 20% FCS, 0.5% NaN3) was added. Samples were then read and analyzed using BD FACSCanto™ II and FlowJo®. APIM peptide and camptothecin (CPT) were used as positive controls ([38], [54]–[56]). Specific cell death was calculated as following: Y = 100*((sample cell death − basal cell death)/(100 − basal cell death)). Basal cell death = % of PI positive cells following incubation in complete culture media.
# [2] = test system: MDA-MB-231 cells; assay: Flow cytometry based cell death assay (PI), MDA-MB-231; set-up: species or system human; settings: MDA-MB-231, PI flow cytometry, 0–8 µM, 24 h
# Procedure: as §1
# [3] = test system: B16 cells; assay: Flow cytometry based cell death assay (PI), B16; set-up: species or system murine; settings: 0–8 µM, 24 h
# Procedure: as §1
# [4] = test system: 4T1 mammary carcinoma cells; assay: PrestoBlue cell viability, 4T1; type: cell-based, murine; settings: 4T1, PrestoBlue, 24 h; peptides 0–8 µM; selenite 25 µM
# Procedure: (§2) Target cells (2.5 × 10^4 cells/well of a 48-well plate, Corning) were seeded and incubated in 37°C, 5% CO2 for 24 h in 0.5 ml of fresh complete DMEM (10% FBS) culture medium. According to molecular weight peptides were diluted from 8 to 2 µM with 5% FBS containing DMEM culture medium just before the incubation with the target cells. Medium was removed from each well, and 250 µl of diluted peptides was added and incubated for another 24 h at 37°C, 5% CO2. PrestoBlue (A13261, Invitrogen™) solution was prepared by diluting the dye 10-fold with complete DMEM. Medium was discarded from each well, and 250 µl of PrestoBlue solution was added to each well, shake gently and incubated at 37°C for another 1 h. Emission at 560 nm was measured in Premium Quad4 Monochromators plate reader (Tecan). Normalization was done relative to the appropriate control (DMEM or DMSO) to calculate the percentage of viable cells in each group. Selenite (25 µM) was used as a positive control ([52], [53]).
# [5] = test system: A549 lung carcinoma cells; assay: PrestoBlue cell viability, A549; type: cell-based, human; settings: 24 h, peptides 0–8 µM, selenite 25 µM
# Procedure: as §2
# [6] = test system: pep8–PCNA interaction (recombinant PCNA); assay: ELISA-based inhibition of biotin-pep8 binding to PCNA; set-up: species or system human; settings: inhibitor 25 µg/ml 1 h, then biotin-pep8 5 µg/ml 1 h, room temperature, O.D. 650 nm
# Procedure: To determine the ability of APIM-based peptide to suppress NKp44-pep8 interaction with PCNA, ELISA plates were coated with recombinant PCNA followed by PBS–skim milk added as described earlier. Plates were then incubated with 25 µg/ml of R11-NLS-pep8 (positive control), R11-NLS-pep8short (negative control), and APIM for 1 h at room temperature followed by addition of biotin-pep8 (5 µg/ml) without washing for 1 h at room temperature. Biotin-pep8 binding to PCNA was detected using streptavidin conjugated HRP (1 h at 1:500 dilution 100 μl/well). Following washing, TMB (100 μl/well DAKO, S1599) was added. O.D. was read at 650 nm (Thermo Electron Corporation Multiskan Spectrum).
# [7] = test system: PANC-1 pancreas ductal adenocarcinoma cells; assay: PrestoBlue cell viability, PANC-1; type: cell-based, human; settings: PANC-1, PrestoBlue, 24 h
# Procedure: as §2
# [8] = test system: MDA-MB-231 breast adenocarcinoma cells; assay: PrestoBlue cell viability, MDA-MB-231; type: cell-based, human; settings: MDA-MB-231, PrestoBlue, 24 h
# Procedure: as §2
# [9] = test system: HepG2 hepatocellular carcinoma cells; assay: PrestoBlue cell viability, HepG2; type: cell-based, human; settings: 24 h
# Procedure: as §2
# [10] = test system: B16 melanoma cells; assay: PrestoBlue cell viability, B16; type: cell-based, murine; settings: 24 h
# Procedure: as §2
# [11] = test system: recombinant human PCNA (hPCNA); assay: ELISA binding of biotinylated NKp44-derived peptides to plate-bound recombinant PCNA; settings: biotinylated peptide, 0–7.24 µM (Figure 1A), streptavidin-HRP, TMB, O.D. 650 nm
# Procedure: The pET-28 or pMAL-c2x vectors were used to produce soluble human PCNA (hPCNA) in Rosetta™ 2 (DE3) cells. Plasmids containing the mRNA sequence of PCNA or TL1A, APO-E3, HNF4 were transformed into Rosetta™ 2 cells via heat shock and grown on LB agar plates with kanamycin and chloramphenicol. A fresh colony of transformed bacteria was grown overnight in a 5 ml of LB with kanamycin and chloramphenicol an incubator shaker set to 37°C and at 250 rpm. The next day, bacteria cells were diluted 1:100 into a 500 ml of LB with kanamycin and chloramphenicol (to discard dead cells) and grown to an optical density (O.D.) of 0.6–0.8 (λ = 650 nm). Isopropyl β-D-1-thiogalactopyranoside (0.5 mM) was added for the induction of the PCNA production, and cells were further incubated for 4 h at 26°C (hPCNA). Cells were then centrifuged and the pellet was resuspended with solution A (20 mM Tris–HCl pH 8.0, 0.5 M NaCl, 20 mM imidazole), sonicated six times (20 s with 40 s intervals) and sieved through […] (Sartorius Stedim Biotech) filter before loaded on a His-tag or Amylose resin beads. Purification of His-tagged proteins was done using a Gravity-flow Column with “HisPur™ Ni-NTA Resin” Bead kit (Thermo-Scientific) (binding capacity ≤ 60 mg of a 28 kDa 6xHis-tagged protein from a bacterial source per milliliter of settled resin) according to Kits Protocol. Purification of MBP-tagged proteins was done using the Amylose resin beads (Catalog # E8035S).
# To determine the interaction between NKp44-derived peptides and PCNA, ELISA plates were coated overnight at 4°C with 2 µg/ml of the recombinant PCNA or TLA1 ([49]), APO-E3 ([50]), HNF4 ([4]), rhFc, rhNKp44-hFc ([12]), rhNKp46-hFc ([51]), and PBS 1× (negative controls). Blocking buffer (PBS + 2.5% skim milk) was applied for 2 h at room temperature, after that the plates were incubated with 0–8 µM of biotinylated NKp44-derived peptides or PBS 1× (background control) for 2 h at room temperature. NKp44-derived peptides binding to PCNA was detected using horseradish peroxidase (HRP)-conjugated to streptavidin (1 h at 1:500 dilution). Following washing, TMB (DAKO, S1599) was added. O.D. was read at 650 nm (Thermo Electron Corporation Multiskan Spectrum). Between each step, wells were washed three times with PBS containing 0.05% Tween 20 (PBST).
# [12] = target: T1, MBP-fused recombinant human PCNA (human, UniProt P12004 1-261); assay: SPR; ProteOn XPR36, GLC chip; peptides immobilised by EDC/S-NHS amine coupling; MBP-PCNA 0-250 nM as analyte at 25 µl/min; equilibrium analysis model; settings: both partners purified
# T1 construct: proliferating cell nuclear antigen, human; vector pMAL-c2x; Analyte of the SPR experiments; also called MBP-PCNA; hPCNA; source: E. coli Rosetta 2 (DE3), purified (amylose resin)
# T1 sequence (P12004 whole entry, the tested form may be a part): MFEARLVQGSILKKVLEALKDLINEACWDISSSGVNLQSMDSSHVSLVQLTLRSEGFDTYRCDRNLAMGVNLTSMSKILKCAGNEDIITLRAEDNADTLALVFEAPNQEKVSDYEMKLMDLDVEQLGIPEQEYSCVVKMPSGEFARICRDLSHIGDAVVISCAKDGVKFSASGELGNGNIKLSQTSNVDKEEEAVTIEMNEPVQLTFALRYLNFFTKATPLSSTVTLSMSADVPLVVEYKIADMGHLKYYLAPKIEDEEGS
# [13] = target: T2, recombinant human PCNA (proliferating cell nuclear antigen) (human, UniProt P12004 1-261); assay: ELISA; plates coated overnight at 4°C with 2 µg/ml recombinant protein; blocked with PBS + 2.5% skim milk; 0-8 µM biotinylated NKp44-derived peptides, 2 h at room temperature; streptavidin-HRP; settings: both partners purified
# T2 construct: proliferating cell nuclear antigen, human; PCNA coated on ELISA plates; also called hPCNA; recombinant PCNA; source: E. coli Rosetta 2 (DE3), purified (Ni-NTA or amylose resin); not shown: His tag or MBP (from the vectors pET-28 or pMAL-c2x)
# T2 sequence (P12004 whole entry): as the sequence (P12004 whole entry, the tested form may be a part) above
molecule,measurement,setting,value
"CC[C@@]1(O)C(=O)OCc2c1cc1n(c2=O)Cc2cc3ccccc3nc2-1 [CPT, camptothecin, reference compound]","induction of cell death, in words",[1],"lower, but stable levels of cell death"
same,"induction of cell death, in words",[2],"lower, but stable levels of cell death"
same,"induction of cell death, in words",[3],"lower, but stable levels of cell death"
"O=[Se](O)O [Selenite, reference compound]","effect on cell viability, in words",[4],significantly reduced cell viability
same,"effect on cell viability, in words",[5],significantly reduced cell viability
"MDRWLVK-W-KKKRK-I-RRRRRRRRRRR [APIM, published PCNA-targeting peptide used as positive control, reference compound]","induction of cell death, in words",[1],strong induction of cell death
same,"induction of cell death, in words",[2],strong induction of cell death
same,"induction of cell death, in words",[3],strong induction of cell death
same,inhibition of pep8 binding to PCNA,[6],7%
"RRRRRRRRRRR-I-KKKRK-W-VTSSKPRTVA [R11-NLS-pep8short, R11-NLS fused to pep8short, negative control]","effect on cell viability, in words",[7],none to dull effect
same,"effect on cell viability, in words",[8],none to dull effect
same,"effect on cell viability, in words",[4],did not affect 4T1 cell viability
same,"effect on cell viability, in words",[9],none to dull effect
same,"induction of cell death, in words",[1],did not induce any cell death
same,"induction of cell death, in words",[2],did not induce any cell death
same,"effect on cell viability, in words",[5],did not show any effect on tumor cell viability
same,"induction of cell death, in words",[3],did not induce any cell death
same,inhibition of pep8 binding to PCNA,[6],10%
same,"effect on cell viability, in words",[10],none to dull effect
"VTSSKPRTVA [pep8short, short form of pep8]",binding to recombinant hPCNA,[11],does not bind PCNA
same,binding to recombinant hPCNA,[11]; listed as 10-mer shared core sequence of pep8 and pep10,did not bind PCNA
"YPPTGSLYEKKGWCKEASAL [pep5, NKp44-derived peptide used as negative control]",binding to recombinant hPCNA,[11],negative binding
B1,Kd,[12],87 nM
B2,Kd,[12],490 nM
B3,binding result,[13],binds
B4,binding result,[13],binds
